Experimental data as given in ChEMBL document CHEMBL1121621, “Synthesis and antiarrhythmic activity of alpha, alpha-bis[(dialkylamino)alkyl]phenylacetamides” (J Med Chem, 1980).

What was measured:
[1] = Therapeutic ratio in mixed-breed or Beagle dogs after intravenous administration of the compound.; assay type: ADME, Canis lupus familiaris; conditions: dog, in vivo, read-out: TR
[2] = test system: Canis familiaris; assay: Antiarrhythmic activity was evaluated in mixed-breed or Beagle dogs after intravenous administration.; assay type: functional, Canis lupus familiaris, Heart
[3] = test system: Canis familiaris; assay: Minimum effective dose evaluated in mixed-breed or Beagle dogs after intravenous administration; assay type: functional; conditions: Canis lupus familiaris, read-out: MED
[4] = test system: Canis familiaris; assay: Activity duration index was evaluated in mixed-breed or Beagle dogs after intravenous administration.; assay type: functional, Canis lupus familiaris
[5] = test system: Canis familiaris; assay: Compound was evaluated for onset of action after oral administration at a dose 25 mg/kg to dog.; assay type: functional, Canis lupus familiaris
[6] = test system: Canis familiaris; assay: Compound was evaluated for maximum reduction of ectopic beats after oral administration at a dose 25 mg/kg to dog.; assay type: functional, Canis lupus familiaris, Heart
[7] = test system: Canis familiaris; assay: Compound was evaluated for duration of action after oral administration at a dose 25 mg/kg to dog.; assay type: functional, Canis lupus familiaris

SMILES: CC(C)N(CCC(CCN(C)C)(C(N)=O)c1ccc(C(C)(C)C)cc1)C(C)C (stereo not given)
- selectivity ratio [1]: 1.3
- AR [2]: 4.9
- minimal effective dose [3]: 5 mg/kg
- ADI [4]: 0.76

SMILES: CCN(CC)CCC(CCN(C(C)C)C(C)C)(C(N)=O)c1ccccc1 (stereo not given)
- selectivity ratio [1]: 5.5
- AR [2]: 4.6
- minimal effective dose [3]: 7.5 mg/kg
- ADI [4]: 0.94

SMILES: COc1ccc(C(CCN(C(C)C)C(C)C)(CCN(C(C)C)C(C)C)C(N)=O)cc1
- selectivity ratio [1]: 3.1
- AR [2]: 6.5
- minimal effective dose [3]: 4 mg/kg
- ADI [4]: 1.33

SMILES: CC(C)N(CCC(CCN1CCCCC1)(C(N)=O)c1ccccc1Br)C(C)C (stereo not given)
- selectivity ratio [1]: 13
- AR [2]: 7.2
- minimal effective dose [3]: 1.5 mg/kg
- ADI [4]: 1.2

SMILES: CC(C)N(CCC(CCCN(C)C)(C(N)=O)c1ccccc1F)C(C)C (stereo not given)
- selectivity ratio [1]: > 4
- AR [2]: 1.8
- minimal effective dose [3]: 12.5 mg/kg
- ADI [4]: 0.12

SMILES: C=C[C@H]1CN2CC[C@H]1C[C@@H]2[C@@H](O)c1ccnc2ccc(OC)cc12 [QUINIDINE]
- AR [2]: 2.2
- Onset of action [5]: 110 min
- Reduction [6]: 57%
- minimal effective dose [3]: 13.5 mg/kg
- Duration [7]: 110 min
- ADI [4]: 0.4

SMILES: CC(C)N(CCC(CCN1CCCCC1)(C(N)=O)c1ccc(F)cc1)C(C)C (stereo not given)
- selectivity ratio [1]: 1
- AR [2]: 4.4
- minimal effective dose [3]: 8.3 mg/kg
- ADI [4]: 0.58

SMILES: CC(C)N(CCC(CCN(C(C)C)C(C)C)(C(N)=O)c1c(Cl)cccc1Cl)C(C)C
- selectivity ratio [1]: 4.6
- AR [2]: 6.9
- minimal effective dose [3]: 2.7 mg/kg
- ADI [4]: 1.2

SMILES: CC(C)N(CCC(CCN(C(C)C)C(C)C)(C(N)=O)c1ccccc1)C(C)C
- selectivity ratio [1]: 3.4
- AR [2]: 6.5
- Onset of action [5]: 200 min
- Reduction [6]: 89%
- minimal effective dose [3]: 5.5 mg/kg
- Duration [7]: 200 min
- ADI [4]: 1.31

SMILES: CC(C)N(CCC(CCN(C)C)(C(N)=O)c1ccccc1)C(C)C (stereo not given)
- selectivity ratio [1]: > 7.5
- AR [2]: 2.6
- Onset of action [5]: 131 min
- Reduction [6]: 100%
- minimal effective dose [3]: 12 mg/kg
- Duration [7]: 200 min
- ADI [4]: 0.4

SMILES: CC(C)N(CCC(CCN(C(C)C)C(C)C)(C(N)=O)c1ccc(F)cc1F)C(C)C
- selectivity ratio [1]: 4.7
- AR [2]: 7.7
- minimal effective dose [3]: 4.5 mg/kg
- ADI [4]: 0.69

SMILES: CC(C)N(CCC(CCN1CCCCC1)(C(N)=O)c1ccc(C(C)(C)C)cc1)C(C)C (stereo not given)
- selectivity ratio [1]: 2.9
- AR [2]: 7.8
- minimal effective dose [3]: 2.5 mg/kg
- ADI [4]: 0.82

SMILES: CC(C)N(CCC(CCN(C(C)C)C(C)C)(C(N)=O)c1cccc(C(F)(F)F)c1)C(C)C
- selectivity ratio [1]: 2.4
- AR [2]: 6
- minimal effective dose [3]: 3 mg/kg
- ADI [4]: 1.5

SMILES: CC(C)N(CCC(CCN1CCOCC1)(C(N)=O)c1ccccc1)C(C)C (stereo not given)
- selectivity ratio [1]: 7.6
- AR [2]: 5.6
- Onset of action [5]: 285 min
- Reduction [6]: 84%
- minimal effective dose [3]: 5 mg/kg
- Duration [7]: 52 min

SMILES: CC(C)N(CCC(CCN(C(C)C)C(C)C)(C(N)=O)c1ccccc1Br)C(C)C
- selectivity ratio [1]: 8
- AR [2]: 6.1
- minimal effective dose [3]: 1.5 mg/kg
- ADI [4]: 2.16

SMILES: CC(C)N(CCC(CCN1CCN2CCCC2C1)(C(N)=O)c1ccccc1)C(C)C (stereo not given)
- selectivity ratio [1]: > 5
- AR [2]: 2.7
- minimal effective dose [3]: 10 mg/kg

SMILES: CC(C)N(CCC(CCCN(C)C)(C(N)=O)c1ccccc1)C(C)C (stereo not given)
- minimal effective dose [3]: 20 mg/kg

SMILES: CC(C)N(CCC(CCN(C(C)C)C(C)C)(C(N)=O)c1ccc(Cl)cc1Cl)C(C)C
- selectivity ratio [1]: 4
- AR [2]: 7.6
- minimal effective dose [3]: 1.5 mg/kg
- ADI [4]: 2.14

SMILES: CC(C)N(CCC(CCCN1CC2CCC(CC2)C1)(C(N)=O)c1ccccc1Cl)C(C)C (stereo not given)
- selectivity ratio [1]: 4
- AR [2]: 6.3
- minimal effective dose [3]: 7 mg/kg
- ADI [4]: 0.3

SMILES: CC(C)N(CCC(CCN(C(C)C)C(C)C)(C(N)=O)c1cccc(F)c1)C(C)C
- selectivity ratio [1]: 2.4
- AR [2]: 6
- minimal effective dose [3]: 3 mg/kg
- ADI [4]: 0.66

SMILES: CC(C)N(CCC(CCn1cccc1)(C(N)=O)c1ccccc1F)C(C)C (stereo not given)
- selectivity ratio [1]: 7.3
- AR [2]: 3.6
- minimal effective dose [3]: 7.5 mg/kg
- ADI [4]: 0.59

SMILES: CC(C)N(CCC(CCN1CCCCCC1)(C(N)=O)c1ccccc1)C(C)C (stereo not given)
- selectivity ratio [1]: 8.7
- AR [2]: 6.8
- minimal effective dose [3]: 3 mg/kg
- ADI [4]: 0.68

SMILES: CC(C)N(CCC(CCN1CCCCC1)(C(N)=O)c1cccc(Cl)c1)C(C)C (stereo not given)
- selectivity ratio [1]: 3
- AR [2]: 4.4
- minimal effective dose [3]: 2.3 mg/kg
- ADI [4]: 0.7

SMILES: CC(C)N(CCC(CCN(C(C)C)C(C)C)(C(N)=O)c1ccc(Cl)c(Cl)c1)C(C)C
- selectivity ratio [1]: 4.6
- AR [2]: 5.8
- minimal effective dose [3]: 2.5 mg/kg
- ADI [4]: 0.63

SMILES: CC(C)N(CCC(CCN(C)C)(C(N)=O)c1ccc(F)cc1)C(C)C (stereo not given)
- selectivity ratio [1]: 1.1
- AR [2]: 2.2
- minimal effective dose [3]: 15 mg/kg
- ADI [4]: 0.21

SMILES: CC(C)N(CCC(CCCN1CCCCC1)(C(N)=O)c1ccccc1F)C(C)C (stereo not given)
- selectivity ratio [1]: > 6
- AR [2]: 4.2
- minimal effective dose [3]: 7.5 mg/kg
- ADI [4]: 0.36

SMILES: CC(C)N(CCC(CCN(C(C)C)C(C)C)(C(N)=O)c1ccccc1Cl)C(C)C
- selectivity ratio [1]: 3.5
- AR [2]: 6.5
- minimal effective dose [3]: 2.5 mg/kg
- ADI [4]: 1.57

SMILES: CC(C)N(CCC(CCN(C)C)(C(N)=O)c1ccccc1Cl)C(C)C (stereo not given)
- selectivity ratio [1]: 4.7
- AR [2]: 2.7
- minimal effective dose [3]: 7.5 mg/kg
- ADI [4]: 0.31

SMILES: CC(C)N(CCC(CCN1CCCCC1)(C(N)=O)c1ccc(Cl)cc1)C(C)C (stereo not given)
- selectivity ratio [1]: 1
- AR [2]: 6.6
- minimal effective dose [3]: 3.5 mg/kg
- ADI [4]: 0.51

SMILES: CC(C)N(CCC(CCN1CCCCCC1)(C(N)=O)c1ccccc1F)C(C)C (stereo not given)
- selectivity ratio [1]: 7.5
- AR [2]: 6.9
- minimal effective dose [3]: 3 mg/kg
- ADI [4]: 0.78

SMILES: CC(C)N(CCC(CCn1cccc1)(C(N)=O)c1ccccc1)C(C)C (stereo not given)
- selectivity ratio [1]: > 3.3
- AR [2]: 2.3
- minimal effective dose [3]: 15 mg/kg
- ADI [4]: 0.13

SMILES: CC(C)N(CCC(CCN1CCCCC1)(C(N)=O)c1ccc(F)cc1F)C(C)C (stereo not given)
- selectivity ratio [1]: > 4
- AR [2]: 6
- minimal effective dose [3]: 6 mg/kg
- ADI [4]: 0.42

SMILES: Cc1ccccc1C(CCN(C(C)C)C(C)C)(CCN(C(C)C)C(C)C)C(N)=O
- selectivity ratio [1]: 6
- AR [2]: 6.6
- minimal effective dose [3]: 1.5 mg/kg
- ADI [4]: 2.57

SMILES: CC(C)c1ccc(C(CCN2CCCCC2)(CCN(C(C)C)C(C)C)C(N)=O)cc1 (stereo not given)
- selectivity ratio [1]: 2
- AR [2]: 6.2
- minimal effective dose [3]: 3 mg/kg
- ADI [4]: 0.75

SMILES: CC(C)N(CCC(CCN(C(C)C)C(C)C)(C(N)=O)c1cccc(Cl)c1)C(C)C
- selectivity ratio [1]: 6.7
- AR [2]: 6.9
- minimal effective dose [3]: 1.5 mg/kg
- ADI [4]: 1.42

SMILES: Cc1ccc(C(CCN(C(C)C)C(C)C)(CCN(C(C)C)C(C)C)C(N)=O)cc1
- selectivity ratio [1]: 1.9
- AR [2]: 5.3
- minimal effective dose [3]: 2 mg/kg

SMILES: CC(C)N(CCC(CCN1C(C)CCCC1C)(C(N)=O)c1ccccc1F)C(C)C (stereo not given)
- selectivity ratio [1]: 6.7
- AR [2]: 8.3
- minimal effective dose [3]: 3.3 mg/kg
- ADI [4]: 2.2

SMILES: CC1CCCCN1CCC(CCN(C(C)C)C(C)C)(C(N)=O)c1ccccc1F (stereo not given)
- selectivity ratio [1]: 3.2
- AR [2]: 4.6
- minimal effective dose [3]: 7.5 mg/kg
- ADI [4]: 0.6

SMILES: CC(C)N(CCC(CCN1CC2CCC1CC2)(C(N)=O)c1ccccc1)C(C)C (stereo not given)
- selectivity ratio [1]: 4.6
- AR [2]: 6.7
- minimal effective dose [3]: 3.5 mg/kg
- ADI [4]: 1.38

SMILES: CC(C)N(CCC(CCCN1CCCCC1)(C(N)=O)c1ccccc1Cl)C(C)C (stereo not given)
- selectivity ratio [1]: 5
- AR [2]: 4.6
- minimal effective dose [3]: 3.5 mg/kg
- ADI [4]: 1.55
